In article PMC6359172, “Symmetrical Heterocyclic Cage Skeleton: Synthesis, Urease Inhibition Activity, Kinetic Mechanistic Insight, and Molecular Docking Analyses” (Molecules, 2019):
Read-outs that look alike come from different tables or passages of the source.

Target: T1, jack bean urease (Canavalia ensiformis, UniProt P07374)
T1 construct: purchased Sigma (St. Louis, MO, USA)
Test: biochemical
Procedure: The urease activity was determined by measuring the amount of ammonia produced with the indophenols method previously described. The reaction mixtures, comprising 20 µL of enzyme (jack bean urease, 5 U/mL) and 20 μL of test compounds in 50 μL buffer (100 mM urea, 0.01 M K2HPO4, 1 mM EDTA, and 0.01 M […], pH 8.2), were incubated for 30 min at 37 °C in a 96-well plate. Briefly, 50 μL each of phenol reagents (1%, w/v phenol and 0.005%, w/v sodium nitroprusside) and 50 μL of alkali reagent (0.5%, w/v NaOH and 0.1% active chloride NaOCl) were added to each well. The absorbance at 625 nm was measured after 10 min, using a microplate reader (OPTI Max, Tunable). All reactions were performed in triplicate. The urease inhibition activities were calculated according to the following formula:Urease inhibition activity (%) = (ODcontrol − ODsample × 100)/ODcontrol where ODcontrol and ODsample represents the optical densities in the absence and presence of the sample, respectively. Thiourea was used as the standard inhibitor for urease.

T1 sequence (P07374 whole entry, looked up): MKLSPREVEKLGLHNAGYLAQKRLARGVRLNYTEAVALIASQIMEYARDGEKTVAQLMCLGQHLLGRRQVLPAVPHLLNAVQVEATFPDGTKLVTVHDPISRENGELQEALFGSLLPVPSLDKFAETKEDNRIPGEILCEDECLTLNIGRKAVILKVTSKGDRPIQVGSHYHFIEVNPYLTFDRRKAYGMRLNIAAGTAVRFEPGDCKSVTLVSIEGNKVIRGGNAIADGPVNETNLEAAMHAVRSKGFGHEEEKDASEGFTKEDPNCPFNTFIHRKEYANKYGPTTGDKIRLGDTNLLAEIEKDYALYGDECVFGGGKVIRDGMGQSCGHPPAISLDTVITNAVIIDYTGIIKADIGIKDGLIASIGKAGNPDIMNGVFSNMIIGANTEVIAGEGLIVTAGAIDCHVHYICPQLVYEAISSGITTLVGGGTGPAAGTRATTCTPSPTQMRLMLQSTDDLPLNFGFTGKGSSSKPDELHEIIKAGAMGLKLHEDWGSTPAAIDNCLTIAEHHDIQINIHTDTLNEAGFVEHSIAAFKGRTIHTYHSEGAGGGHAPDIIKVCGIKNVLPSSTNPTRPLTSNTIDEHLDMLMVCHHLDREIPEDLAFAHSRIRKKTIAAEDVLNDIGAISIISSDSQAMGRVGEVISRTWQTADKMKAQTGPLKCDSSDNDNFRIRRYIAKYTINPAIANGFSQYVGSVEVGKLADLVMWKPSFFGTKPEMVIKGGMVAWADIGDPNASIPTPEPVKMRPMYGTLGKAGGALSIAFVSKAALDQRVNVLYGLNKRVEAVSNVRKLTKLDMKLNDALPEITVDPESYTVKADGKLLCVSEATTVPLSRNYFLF

SMILES	IC50	IC50 (jack bean urease 5 U/mL, 100 mM urea, pH 8.2, 30 min 37 °C, read-out: Urease Inhibition IC50)
COc1ccc(-c2n[nH]c(=O)n2/N=C/c2cccc(/C=N/n3c(-c4ccc(OC)cc4)n[nH]c3=O)n2)cc1 [Compound 3]	18.9 ± 1.81 µM	–
COc1ccc(-c2n[nH]c(=S)n2/N=C/c2cccc(/C=N/n3c(-c4ccc(OC)cc4)n[nH]c3=S)n2)cc1 [Compound 4]	29.3 ± 3.32 µM	–
NC(N)=S [Thio-Urea, Thiourea, reference compound]	–	20.7 ± 0.45 µM
